“And” between values parts separate entries of the source, which are not always exact repeats. Identical values can stand only once. Toxic doses and inconclusive results are not listed. How the source made its calls: active means survival T/C of 150% or more; inactive means T/C below 125% in these data.
Tested on: BDF1 mice, P388 leukemia ip, median survival T/C
Test: NCI In Vivo Anticancer Drug Screen. Data for tumor model P388 Leukemia (intraperitoneal) in B6D2F1 (BDF1) mice
Conditions: endpoint: median survival time, higher = longer survival
Summary of the method: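 Reported as T/C, where T is the survival measurement in dosed animals and C the same measurement in vehicle controls.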

[1] = dose: 12.5 mg/kg/injection, schedule: Q04DX003 (ip), vehicle: Klucel (hydroxypropylcellulose) (HPC)
[2] = dose: 25.0 mg/kg/injection, schedule: Q01DX009 (ip), vehicle: saline with Tween-80
[3] = dose: 50.0 mg/kg/injection, schedule: Q01DX009 (ip), vehicle: saline with Tween-80
[4] = dose: 100.0 mg/kg/injection, schedule: Q01DX009 (ip), vehicle: saline with Tween-80
[5] = dose: 100.0 mg/kg/injection, schedule: Q04DX003 (ip), vehicle: saline with Tween-80
[6] = dose: 200.0 mg/kg/injection, schedule: Q01DX009 (ip), vehicle: saline with Tween-80
[7] = dose: 100.0 mg/kg/injection, schedule: Q01DX009 (ip), vehicle: saline
[8] = dose: 100.0 mg/kg/injection, schedule: Q04DX003 (ip), vehicle: saline
[9] = dose: 200.0 mg/kg/injection, schedule: Q01DX009 (ip), vehicle: saline
[10] = dose: 400.0 mg/kg/injection, schedule: Q01DX009 (ip), vehicle: saline
[11] = dose: 400.0 mg/kg/injection, schedule: Q04DX003 (ip), vehicle: saline
[12] = dose: 100.0 mg/kg/injection, schedule: Q04DX003 (ip), vehicle: Klucel (hydroxypropylcellulose) (HPC)
[13] = dose: 200.0 mg/kg/injection, schedule: Q04DX003 (ip), vehicle: Klucel (hydroxypropylcellulose) (HPC)
[14] = dose: 400.0 mg/kg/injection, schedule: Q04DX003 (ip), vehicle: Klucel (hydroxypropylcellulose) (HPC)
[15] = dose: 50.0 mg/kg/injection, schedule: Q04DX003 (ip), vehicle: saline

Measured: T/C

O=S(=O)(ON=C1C=CC(=NOS(=O)(=O)c2ccccc2)C=C1)c1ccccc1
inactive: dose: 3.13 mg/kg/injection, schedule: Q04DX003 (ip), vehicle: Klucel (hydroxypropylcellulose) (HPC) 109 % of control | dose: 6.25 mg/kg/injection, schedule: Q04DX003 (ip), vehicle: Klucel (hydroxypropylcellulose) (HPC) 111 % of control | [1] 109 % of control | dose: 25.0 mg/kg/injection, schedule: Q04DX003 (ip), vehicle: Klucel (hydroxypropylcellulose) (HPC) 109 % of control

CCS(=O)(=O)CCN1C(=O)CN=C(c2ccccc2F)c2cc(Cl)ccc21
inactive: dose: 12.5 mg/kg/injection, schedule: Q01DX009 (ip), vehicle: saline with Tween-80 114 % of control | [2] 96 % of control | [3] 103 % of control and 123 % of control | [4] 90 % of control and 107 % of control

c1ccc(-n2nc3c(c2OCCN2CCCC2)CCCc2ccccc2-3)cc1
inactive: dose: 66.0 mg/kg/injection, schedule: Q04DX003 (ip), vehicle: saline with Tween-80 108 % of control | [5] 104 % of control and 116 % of control

CCc1ccccc1NC(=O)N1CCOCC1
inactive: [3] 94 % of control | [4] 102 % of control | [6] 109 % of control

COC(=O)C1(C)CCC(c2ccc(OC)cc2)C(CC(=O)O)C1=O (configuration not stated)
inactive: [7] 95 % of control | [8] 100 % of control | [9] 104 % of control | dose: 200.0 mg/kg/injection, schedule: Q04DX003 (ip), vehicle: saline 119 % of control | [10] 109 % of control | [11] 96 % of control

Nc1c(Br)cc2c(c1Br)Cc1cc(Br)ccc1-2
inactive: [4] 91 % of control | [6] 87 % of control

O=C1CCCCCCCCCCC1Cc1cc(O)c(CC2CCCCCCCCCCC2=O)cc1O (configuration not stated)
inactive: [3] 96 % of control | [4] 94 % of control | [6] 100 % of control

Cc1cccc(/C=N\OCc2ccccc2)n1
inactive: [5] 118 % of control | dose: 132.0 mg/kg/injection, schedule: Q04DX003 (ip), vehicle: saline with Tween-80 104 % of control | dose: 200.0 mg/kg/injection, schedule: Q04DX003 (ip), vehicle: saline with Tween-80 100 % of control | dose: 300.0 mg/kg/injection, schedule: Q04DX003 (ip), vehicle: saline with Tween-80 108 % of control | dose: 400.0 mg/kg/injection, schedule: Q04DX003 (ip), vehicle: saline with Tween-80 118 % of control

CN1CCCC(CC2c3ccccc3Sc3ccccc32)C1 (configuration not stated)
inactive: dose: 7.5 mg/kg/injection, schedule: Q01DX010 (ip), vehicle: saline 100 % of control | dose: 15.0 mg/kg/injection, schedule: Q01DX010 (ip), vehicle: saline 100 % of control | dose: 30.0 mg/kg/injection, schedule: Q01DX010 (ip), vehicle: saline 100 % of control | dose: 60.0 mg/kg/injection, schedule: Q01DX010 (ip), vehicle: saline 109 % of control

[O-]c1c(Cl)c(Cl)c(O[P+](c2ccccc2)(c2ccccc2)c2ccccc2)c(Cl)c1Cl
inactive: dose: 6.25 mg/kg/injection, schedule: Q01DX009 (ip), vehicle: saline 116 % of control | dose: 12.5 mg/kg/injection, schedule: Q01DX009 (ip), vehicle: saline 122 % of control

O=C1C=CC(=O)N1CO
inactive: dose: 0.62 mg/kg/injection, schedule: Q04DX003 (ip), vehicle: saline 100 % of control | dose: 1.25 mg/kg/injection, schedule: Q01DX009 (ip), vehicle: saline 109 % of control | dose: 1.25 mg/kg/injection, schedule: Q04DX003 (ip), vehicle: saline 95 % of control | dose: 2.5 mg/kg/injection, schedule: Q01DX009 (ip), vehicle: saline 118 % of control | dose: 2.5 mg/kg/injection, schedule: Q04DX003 (ip), vehicle: saline 90 % of control | dose: 3.6 mg/kg/injection, schedule: Q04DX003 (ip), vehicle: saline 100 % of control | dose: 5.6 mg/kg/injection, schedule: Q04DX003 (ip), vehicle: saline 104 % of control | dose: 8.4 mg/kg/injection, schedule: Q04DX003 (ip), vehicle: saline 104 % of control

CCC(=O)OCC(=O)[C@]1(O)Cc2c(O)c3c(c(O)c2[C@@H](OC2CC(N)C(O)C(C)O2)C1)C(=O)c1c(OC)cccc1C3=O (some centres not stated)
active: dose: 0.12 mg/kg/injection, schedule: Q01DX009 (ip), vehicle: saline 170 % of control | dose: 0.25 mg/kg/injection, schedule: Q01DX009 (ip), vehicle: saline 201 % of control | dose: 0.5 mg/kg/injection, schedule: Q01DX009 (ip), vehicle: saline 219 % of control | dose: 1.0 mg/kg/injection, schedule: Q01DX009 (ip), vehicle: saline 186 % of control | dose: 2.0 mg/kg/injection, schedule: Q01DX009 (ip), vehicle: saline 241 % of control | dose: 60.0 micrograms/kg/injection, schedule: Q01DX009 (ip), vehicle: saline 170 % of control
inactive: dose: 7.5 micrograms/kg/injection, schedule: Q01DX009 (ip), vehicle: saline 102 % of control | dose: 15.0 micrograms/kg/injection, schedule: Q01DX009 (ip), vehicle: saline 107 % of control | dose: 30.0 micrograms/kg/injection, schedule: Q01DX009 (ip), vehicle: saline 118 % of control

C/C(N=Nc1ccccc1)=N\Nc1cccc(C(F)(F)F)c1
inactive: dose: 50.0 mg/kg/injection, schedule: Q01DX009 (ip), vehicle: Klucel (hydroxypropylcellulose) (HPC) 100 % of control | dose: 100.0 mg/kg/injection, schedule: Q01DX009 (ip), vehicle: Klucel (hydroxypropylcellulose) (HPC) 105 % of control | [12] 104 % of control | dose: 200.0 mg/kg/injection, schedule: Q01DX009 (ip), vehicle: Klucel (hydroxypropylcellulose) (HPC) 100 % of control | [13] 104 % of control | [14] 108 % of control

CCOC(=O)C(OCc1ccccc1)(C(=O)OCC)C(C)C
inactive: dose: 25.0 mg/kg/injection, schedule: Q04DX003 (ip), vehicle: saline 115 % of control | [15] 100 % of control | [8] 105 % of control

CCOCCc1ccccn1
inactive: [7] 100 % of control | [9] 104 % of control | [10] 122 % of control

CC(Cc1ccc2c(c1)OCO2)C(C)Cc1ccc2c(c1)OCO2 (configuration not stated)
inactive: dose: 100.0 mg/kg/injection, schedule: Q01DX001 (ip), vehicle: Klucel (hydroxypropylcellulose) (HPC) 100 % of control | dose: 200.0 mg/kg/injection, schedule: Q01DX001 (ip), vehicle: Klucel (hydroxypropylcellulose) (HPC) 100 % of control | dose: 400.0 mg/kg/injection, schedule: Q01DX001 (ip), vehicle: Klucel (hydroxypropylcellulose) (HPC) 100 % of control

CCOCCN1CCN(CCCN2c3ccccc3Sc3ccc(C(F)(F)F)cc32)CC1
inactive: dose: 6.25 mg/kg/injection, schedule: Q04DX003 (ip), vehicle: saline 107 % of control and 112 % of control | dose: 12.5 mg/kg/injection, schedule: Q04DX003 (ip), vehicle: saline 116 % of control | [15] 101 % of control

CCCCC(NC(C)=O)C(=O)O (configuration not stated)
inactive: [4] 119 % of control | dose: 400.0 mg/kg/injection, schedule: Q01DX009 (ip), vehicle: saline with Tween-80 113 % of control

OCC12COCN1COC2
inactive: dose: 50.0 mg/kg/injection, schedule: Q01DX009 (ip), vehicle: saline 104 % of control | [7] 104 % of control

CCCCCCCCCCCCC1CC(=O)OC1=O (configuration not stated)
inactive: dose: 75.0 mg/kg/injection, schedule: Q01DX009 (ip), vehicle: Klucel (hydroxypropylcellulose) (HPC) 90 % of control | [12] 104 % of control | [8] 108 % of control | dose: 150.0 mg/kg/injection, schedule: Q01DX009 (ip), vehicle: Klucel (hydroxypropylcellulose) (HPC) 90 % of control | [13] 109 % of control | dose: 300.0 mg/kg/injection, schedule: Q01DX009 (ip), vehicle: Klucel (hydroxypropylcellulose) (HPC) 109 % of control | [14] 100 % of control | [11] 120 % of control

Oc1ccccc1C=NCCN1CC1.Oc1ccccc1C=NCCN1CC1.[Ni+2]
inactive: dose: 6.25 mg/kg/injection, schedule: Q01DX009 (ip), vehicle: Klucel (hydroxypropylcellulose) (HPC) 101 % of control | dose: 12.5 mg/kg/injection, schedule: Q01DX009 (ip), vehicle: Klucel (hydroxypropylcellulose) (HPC) 101 % of control | [1] 98 % of control | dose: 25.0 mg/kg/injection, schedule: Q04DX003 (ip), vehicle: saline sonified 115 % of control | dose: 50.0 mg/kg/injection, schedule: Q04DX003 (ip), vehicle: Klucel (hydroxypropylcellulose) (HPC) 122 % of control

CN(C)C(=S)NCc1ccccc1
inactive: [3] 109 % of control | [4] 100 % of control | [6] 100 % of control

O=C(NC(=O)c1c(F)cccc1F)Nc1nc2ccccc2s1
inactive: [2] 93 % of control | [4] 93 % of control

From PubChem BioAssay AID328 (DTP/NCI, 2004)
